Data: US6525001B1, “Substituted pyrimidine and pyridine herbicides” (Mid-American Commercialization Corporation, priority 1997, dated 2003)

Key:
Format in all cases: in vivo
[1] = system: wild poinsettia (Euphorbia heterophylla); assay: Test C; set-up: key: 0 was no effect; 100 was complete control; details: PREEMERGENCE
[2] = system: purple nutsedge (Cyperus rotundus); assay: Test E pre-/postemergence/post directed; set-up: key: 0 is no injury; 100 is complete control
How it was run: (§1)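 Three application modes in greenhouse pots: preemergence soil spray, postemergence foliar spray at two to four leaves, and post-directed spray to soil and plant base. Ratings of 0–100 injury, assigned visually against untreated controls 13 to 21 days later.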

[3] = system: sandbur (Cenchrus echinatus); assay: Test E pre-/postemergence/post directed; set-up: key: 0 is no injury; 100 is complete control; details: POSTEMERGENCE
How it was run: as §1

[4] = system: Spanishneedles (Bidens bipinnata); assay: Test E pre-/postemergence/post directed
How it was run: as §1

[5] = system: common ragweed (Ambrosia elatior); assay: Test E pre-/postemergence/post directed
How it was run: as §1

[6] = system: alexandergrass (Brachiaria plantaginea); assay: Test E pre-/postemergence/post directed
How it was run: as §1

[7] = system: sandbur (Cenchrus echinatus); assay: Test E pre-/postemergence/post directed; details: PREEMERGENCE
How it was run: as §1

[8] = system: bermudagrass (Cynodon dactylon); assay: Test E pre-/postemergence/post directed
How it was run: as §1

[9] = system: large crabgrass (Digitaria sanguinalis); assay: Test E pre-/postemergence/post directed
How it was run: as §1

[10] = system: johnson grass (Sorghum halepense); assay: Test E pre-/postemergence/post directed
How it was run: as §1

[11] = system: cocklebur (Xanthium strumarium); assay: Test C; set-up: key: 0 was no effect; 100 was complete control; details: PREEMERGENCE
soybean (Glycine max) = assay: Test C; set-up: key: 0 was no effect; 100 was complete control; details: PREEMERGENCE
[12] = system: sourgrass (Trichachne insularis); assay: Test E pre-/postemergence/post directed; set-up: key: 0 is no effect; 100 is complete control
How it was run: as §1

[13] = system: common groundsel (Senecio vulgaris); assay: Test E pre-/postemergence/post directed; set-up: key: 0 is no effect; 100 is complete control; details: PREEMERGENCE
How it was run: as §1

[14] = system: surinam grass (Brachiaria decumbens); assay: Test E pre-/postemergence/post directed; set-up: key: 0 is no effect; 100 is complete control; details: PREEMERGENCE
How it was run: as §1

[15] = system: common ragweed (Ambrosia elatior); assay: Test E pre-/postemergence/post directed; set-up: key: 0 is no effect; 100 is complete control; details: PREEMERGENCE
How it was run: as §1

[16] = system: large crabgrass (Digitaria sanguinalis); assay: Test E pre-/postemergence/post directed; set-up: key: 0 is no effect; 100 is complete control; details: PREEMERGENCE
How it was run: as §1

[17] = system: goosegrass (Eleusine indica); assay: Test E pre-/postemergence/post directed; set-up: key: 0 is no effect; 100 is complete control
How it was run: as §1

## Cc1cnc(-c2ccc(C(F)(F)F)cc2)nc1Cc1cccc(OC(F)(F)F)c1 [Compound 15]
[1]; Rate 35 g/ha
  Plant response rating, Wild poinsettia: 0
[1]; Rate 70 g/ha
  Plant response rating, Wild poinsettia: 0
[1]; Rate 140 g/ha
  Plant response rating, Wild poinsettia: 20
[2]; POSTEMERGENCE, Rate 125 g/ha
  Plant response rating, Purple nutsedge: 0
[2]; POSTEMERGENCE, Rate 250 g/ha
  Plant response rating, Purple nutsedge: 0
[2]; PREEMERGENCE, Rate 32 g/ha
  Plant response rating, Purple nutsedge: 0
[2]; PREEMERGENCE, Rate 64 g/ha
  Plant response rating, Purple nutsedge: 0
[2]; PREEMERGENCE, Rate 125 g/ha
  Plant response rating, Purple nutsedge: 0
[2]; PREEMERGENCE, Rate 250 g/ha
  Plant response rating, Purple nutsedge: 0
[3]; Rate 125 g/ha
  Plant response rating, Sandbur: 0
[3]; Rate 250 g/ha
  Plant response rating, Sandbur: 0
[4]; POSTEMERGENCE, Rate 125 g/ha
  Plant response rating, Spanishneedles: 5
[4]; POSTEMERGENCE, Rate 250 g/ha
  Plant response rating, Spanishneedles: 10
[4]; PREEMERGENCE, Rate 32 g/ha
  Plant response rating, Spanishneedles: 50
[4]; PREEMERGENCE, Rate 64 g/ha
  Plant response rating, Spanishneedles: 30
[4]; PREEMERGENCE, Rate 125 g/ha
  Plant response rating, Spanishneedles: 98
[5]; POSTEMERGENCE, Rate 125 g/ha
  Plant response rating, Com. ragweed: 5
[5]; POSTEMERGENCE, Rate 250 g/ha
  Plant response rating, Com. ragweed: 10
[5]; PREEMERGENCE, Rate 125 g/ha
  Plant response rating, Com. ragweed: 98
[6]; POSTEMERGENCE, Rate 125 g/ha
  Plant response rating, Alexandergrass: 10
[6]; POSTEMERGENCE, Rate 250 g/ha
  Plant response rating, Alexandergrass: 20
[6]; PREEMERGENCE, Rate 32 g/ha
  Plant response rating, Alexandergrass: 75
[6]; PREEMERGENCE, Rate 64 g/ha
  Plant response rating, Alexandergrass: 80
[7]; Rate 32 g/ha
  Plant response rating, Sandbur: 10
[7]; Rate 64 g/ha
  Plant response rating, Sandbur: 20
[7]; Rate 125 g/ha
  Plant response rating, Sandbur: 50
[8]; POSTEMERGENCE, Rate 125 g/ha
  Plant response rating, Bermudagrass: 20
[8]; POSTEMERGENCE, Rate 250 g/ha
  Plant response rating, Bermudagrass: 20
[8]; PREEMERGENCE, Rate 32 g/ha
  Plant response rating, Bermudagrass: 98
[8]; PREEMERGENCE, Rate 64 g/ha
  Plant response rating, Bermudagrass: 98
[8]; PREEMERGENCE, Rate 125 g/ha
  Plant response rating, Bermudagrass: 98
[8]; PREEMERGENCE, Rate 250 g/ha
  Plant response rating, Bermudagrass: 98
[9]; POSTEMERGENCE, Rate 125 g/ha
  Plant response rating, Large crabgrass: 10
[9]; POSTEMERGENCE, Rate 250 g/ha
  Plant response rating, Large crabgrass: 40
[9]; PREEMERGENCE, Rate 32 g/ha
  Plant response rating, Large crabgrass: 98
[10]; POSTEMERGENCE, Rate 125 g/ha
  Plant response rating, Johnsongrass: 98
[10]; PREEMERGENCE, Rate 32 g/ha
  Plant response rating, Johnsongrass: 60
[10]; PREEMERGENCE, Rate 64 g/ha
  Plant response rating, Johnsongrass: 90
[10]; PREEMERGENCE, Rate 125 g/ha
  Plant response rating, Johnsongrass: 90
[11]; Rate 35 g/ha
  Plant response rating, Cocklebur: 0
[11]; Rate 70 g/ha
  Plant response rating, Cocklebur: 0
[11]; Rate 140 g/ha
  Plant response rating, Cocklebur: 5
Soybean (Glycine max); Rate 35 g/ha
  Plant response rating, Soybean: 0
Soybean (Glycine max); Rate 70 g/ha
  Plant response rating, Soybean: 10
Soybean (Glycine max); Rate 140 g/ha
  Plant response rating, Soybean: 10
[12]; POSTEMERGENCE, Rate 125 g/ha
  Plant response rating, Sourgrass: 20
[12]; POSTEMERGENCE, Rate 250 g/ha
  Plant response rating, Sourgrass: 25
[12]; PREEMERGENCE, Rate 32 g/ha
  Plant response rating, Sourgrass: 100
[12]; PREEMERGENCE, Rate 64 g/ha
  Plant response rating, Sourgrass: 100
[12]; PREEMERGENCE, Rate 125 g/ha
  Plant response rating, Sourgrass: 100
[12]; PREEMERGENCE, Rate 250 g/ha
  Plant response rating, Sourgrass: 100
[13]; Rate 32 g/ha
  Plant response rating, Com. groundsel: 100
[13]; Rate 125 g/ha
  Plant response rating, Com. groundsel: 100
[13]; Rate 250 g/ha
  Plant response rating, Com. groundsel: 100
[14]; Rate 125 g/ha
  Plant response rating, Surinam grass: 100
[14]; Rate 250 g/ha
  Plant response rating, Surinam grass: 100
[15]; Rate 32 g/ha
  Plant response rating, Com. ragweed: 100
[15]; Rate 64 g/ha
  Plant response rating, Com. ragweed: 100
[15]; Rate 250 g/ha
  Plant response rating, Com. ragweed: 100
[16]; Rate 64 g/ha
  Plant response rating, Large crabgrass: 100
[16]; Rate 125 g/ha
  Plant response rating, Large crabgrass: 100
[16]; Rate 250 g/ha
  Plant response rating, Large crabgrass: 100
[17]; POSTEMERGENCE, Rate 125 g/ha
  Plant response rating, Goosegrass: 20
[17]; POSTEMERGENCE, Rate 250 g/ha
  Plant response rating, Goosegrass: 30
[17]; PREEMERGENCE, Rate 32 g/ha
  Plant response rating, Goosegrass: 98
[17]; PREEMERGENCE, Rate 64 g/ha
  Plant response rating, Goosegrass: 98
[17]; PREEMERGENCE, Rate 125 g/ha
  Plant response rating, Goosegrass: 98
[17]; PREEMERGENCE, Rate 250 g/ha
  Plant response rating, Goosegrass: 100
